Measurements: patent US11208478B2, “Methods of detecting and treating a tumor expressing pT346 PDK1” (The Wistar Institute of Anatomy and Biology, priority 2016, dated 2021)

What was measured:
Assay type in all cases: cell-based, Human
PC3 cells = assay: Cell cycle: DNA content by propidium iodide staining and flow cytometry; conditions: hypoxia, DCA 10 mM, MK2206 5 μM
Text: FIG. 13, related to FIG. 5, illustrates additional data regarding mitochondrial Akt signaling supports tumor growth in hypoxia in vivo. A: Human intracranial GBM samples (U251 cells) grown in immunocompromised mice were harvested at the indicated time intervals after stereotactic injection, and the number of mitotic cells was quantified. HPF, high-power microscopy field (n=6-7). Mean±SEM. *, p=0.01. B: Human intracranial GBM samples as in (A) were harvested at day 20 after stereotactic injection of U251 cells in immunocompromised mice, and analyzed for expression of HIF1α, phosphorylated PDK1 (pT346 Ab) or phosphorylated PDHE1α by immunohistochemistry. H&E, hematoxylin and eosin. Yellow lines were used to delineate the tumor mass within mice brain. Scale bar, 100 μm. […] C: Quantification of mitotic cells expressing phosphorylated PDK1 (pT346 Ab) in intracranial GBM harvested from immunocompromised mice at the indicated time intervals (n=5-7). […] D: Intracranial GBM samples as in (A) were analyzed for correlation between HIF1α luciferase activity and the number of PDK1-phosphorylated mitotic cells (pT346 Ab). […], 95% C.I.=0.1-0.9; p=0.02. […] E: PC3 cells in normoxia (N) or hypoxia (H) were treated with vehicle (Veh) or small molecule antagonists of PDK1 (DCA, 10 mM) or Akt (MK2206, 5 μM) and analyzed for DNA content by propidium iodide staining and flow cytometry. […]

mitochondrial Akt = assay: Akt recruitment to mitochondria in hypoxia, subcellular fractions by Western blotting; conditions: PC3 cells, 17-AAG 5 μM for 6 hr, NAC 1 mM, MitoTempo 25 μM
Procedure: FIG. 1 illustrates mitochondrial phosphoproteome in hypoxia. A: Phosphoproteome of prostate adenocarcinoma PC3 cells in hypoxia versus normoxia. Identified phosphosites met a minimum MaxQuant localization probability of 0.75 and a score difference of 5. Fold changes were calculated from the normalized Heavy/Light SILAC ratio. Six Akt target proteins showing increased phosphorylation in hypoxia are indicated. […] B: Ingenuity pathway analysis of mitochondrial phospho- and global proteome in hypoxia. […] D: PC3 cells in normoxia (N) or hypoxia (H) were fractionated in cytosol (Cyto) or mitochondrial (Mito) extracts and analyzed by Western blotting. pAkt, phosphorylated Akt (Ser473). TCE, total cell extracts. E: PC3 cells in hypoxia (H) were exposed to reoxygenation (O2) for the indicated time intervals and analyzed by Western blotting. N, normoxia. F: The indicated subcellular fractions isolated from normoxic (N) or hypoxic (H) PC3 cells were analyzed with an antibody to the Akt consensus phosphorylation site RxRxxS/T (Akt cons Ab) by Western blotting. Mito Sup, supernatant of mitochondrial extracts after preclearing with Akt cons Ab. G: PC3 cells in normoxia (N) or hypoxia (H) were treated with vehicle (Veh) or Hsp90 small molecule inhibitor 17-AAG (5 μM for 6 hr), and cytosolic (Cyto) or mitochondrial (Mito) extracts were analyzed by Western blotting. H: PC3 cells in normoxia (N) or hypoxia (H) were treated with vehicle (Veh), the antioxidant N-acetyl cysteine (NAC, 1 mM) or mitochondria-specific ROS scavenger, MitoTempo (MT, 25 μM), and subcellular fractions were analyzed by Western blotting. See also FIG. 9.
Human prostate adenocarcinoma PC3 and DU145, glioblastoma (GBM) LN229, and breast adenocarcinoma MCF-7 or MDA-231 cells were obtained from the American Type Culture Collection (ATCC, Manassas, Va.), and maintained in culture according to the supplier's specifications. Hypoxic treatment was carried out using an enclosed chamber (BioSpherix) flushed with a nitrogen and CO2 gas. […]

cleaved caspase 3 = assay: Cleaved caspase 3 by Western blotting; conditions: PC3 cells, hypoxia; MK2206 1 μM, PX-866 10 μM
Procedure: FIG. 6 illustrates mitochondrial Akt regulation of stress signaling in hypoxia. A and B: PC3 cells in normoxia (N) or hypoxia (H) were treated with vehicle (Veh) or MK2206 (1 μM) (A) or transduced with pLKO or PDK1-directed shRNA (B) and analyzed for ROS production by CELLROX Green staining and flow cytometry. Upper panels, representative tracings. Bottom panels, quantification of ROS production under the various conditions tested (n=2). Mean±SD for both datasets. *, p=0.01-0.02; **, p=0.004; ns, not significant. C: The experimental conditions are as in (A) and treated cells were analyzed for cell viability by direct cell counting relative to control (n=3). Mean±SEM. ***, p<0.0001. D: PC3 cells in normoxia (N) or hypoxia (H) were incubated with vehicle (Veh) or small molecule inhibitors of Akt (MK2206, 1 μM) or PI3K (PX-866, 10 μM) and analyzed by Western blotting. E: PC3 cells stably silenced for PDK1 were reconstituted with vector, WT PDK1 or T346A PDK1 mutant and analyzed for cell viability by direct cell counting relative to control (n=3). Mean±SEM. ***, p=0.0002. F and G: PC3 cells in normoxia (N) or hypoxia (H) were transduced with pLKO or PDK1-directed shRNA (F) or control siRNA (Ctrl) or Akt1- or Akt2-directed siRNA (G), and analyzed by Western blotting. […] For all panels, data were analyzed using the two-sided unpaired Student's t test. […]

O=C([O-])C(Cl)Cl.[Na+] [DCA, sodium dichloroacetate]
S-phase progression (PC3 cells): suppressed S-phase progression
population of tumor cells in G1/sub-G1 phase (PC3 cells): increased

CC(=O)N[C@@H](CS)C(=O)O [NAC, N-acetyl cysteine]
accumulation / recruitment of Akt to mitochondria (mitochondrial Akt): no effect

C=CCNC1=C2C[C@@H](C)C[C@H](OC)[C@H](O)[C@@H](C)/C=C(\C)[C@H](OC(N)=O)[C@@H](OC)/C=C\C=C(/C)C(=O)NC(=CC1=O)C2=O [17-AAG, 17-allylaminogeldanamycin]
accumulation / recruitment of Akt to mitochondria (mitochondrial Akt): prevented the accumulation of mitochondrial Akt

CC1(C)CC(NC(=O)C[P+](c2ccccc2)(c2ccccc2)c2ccccc2)CC(C)(C)N1[O] [MitoTempo]
accumulation / recruitment of Akt to mitochondria (mitochondrial Akt): inhibited Akt recruitment to mitochondria

C=CCN(/C=C1/C(=O)O[C@H](COC)[C@@]2(C)C1=C(O)C(=O)C1=C2[C@H](OC(C)=O)C[C@]2(C)C(=O)CC[C@@H]12)CC=C [PX-866]
cleaved caspase 3 (marker of apoptosis) (cleaved caspase 3): did not result in caspase activation
